Like-named read-outs stand apart in the source and are kept apart here.
Legend:
[1] = molecular target: PI3 kinase alpha (Homo sapiens, UniProt P42336); assay: PI3K ATP depletion assay (Biological Method 1, Assay 3; KinaseGlo luminescence); format: biochemical; details: ATP depletion assay, read-out: PI3 Kinase Alpha, IC50
Method in brief: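 Compound in DMSO was mixed with 10 nM PI3 kinase and 5 μg/mL phosphatidylinositol, and the reaction was started with 2 μM ATP. It ran to about 50% ATP depletion and was stopped with KinaseGlo.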

[2] = test system: A2780 ovarian cancer cells; assay: Cellular proliferation in A2780 cells, Cell Titer Glo (Biological Method 4); format: cell-based; details: Homo sapiens
Method in brief: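 A2780 cells seeded at 1,000/well in DMEM with 10% FBS, at least 2 h before compound, then exposed 72 h at 37 °C, 5% CO2. Viable cells measured by Cell Titer Glo luminescence; EC50 calculated from duplicate conditions.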

[3] = ovarian cancer cell line A2780, Biological Method 4

Chain of PI3 kinase alpha (P42336 whole entry): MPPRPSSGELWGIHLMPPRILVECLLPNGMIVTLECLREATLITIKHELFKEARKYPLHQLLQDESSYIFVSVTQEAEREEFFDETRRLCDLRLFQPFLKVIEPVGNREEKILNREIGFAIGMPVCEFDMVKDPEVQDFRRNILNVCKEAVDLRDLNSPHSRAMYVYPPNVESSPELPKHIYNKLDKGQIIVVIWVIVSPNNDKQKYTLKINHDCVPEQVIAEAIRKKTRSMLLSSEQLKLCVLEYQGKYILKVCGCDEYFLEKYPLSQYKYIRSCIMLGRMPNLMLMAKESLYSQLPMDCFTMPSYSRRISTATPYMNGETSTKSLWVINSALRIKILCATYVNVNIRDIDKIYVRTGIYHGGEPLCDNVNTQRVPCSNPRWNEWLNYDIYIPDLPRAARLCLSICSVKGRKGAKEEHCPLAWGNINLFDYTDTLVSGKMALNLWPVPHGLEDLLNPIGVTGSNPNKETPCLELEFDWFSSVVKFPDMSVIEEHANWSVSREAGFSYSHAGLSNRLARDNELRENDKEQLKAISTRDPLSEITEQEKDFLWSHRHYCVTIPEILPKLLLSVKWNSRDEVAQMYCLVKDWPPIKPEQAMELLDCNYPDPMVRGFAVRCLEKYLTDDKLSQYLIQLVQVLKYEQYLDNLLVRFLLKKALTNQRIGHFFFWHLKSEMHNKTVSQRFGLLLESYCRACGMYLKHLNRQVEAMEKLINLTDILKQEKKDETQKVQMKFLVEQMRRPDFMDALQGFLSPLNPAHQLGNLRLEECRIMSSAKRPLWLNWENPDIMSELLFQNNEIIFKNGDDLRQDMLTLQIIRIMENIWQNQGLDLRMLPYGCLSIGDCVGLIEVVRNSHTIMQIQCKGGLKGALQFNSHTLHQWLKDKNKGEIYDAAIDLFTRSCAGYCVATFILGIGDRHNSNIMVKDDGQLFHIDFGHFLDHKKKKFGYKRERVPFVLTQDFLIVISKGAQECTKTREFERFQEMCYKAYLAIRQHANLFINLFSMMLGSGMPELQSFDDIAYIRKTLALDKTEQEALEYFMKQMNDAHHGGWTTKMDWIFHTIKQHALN
Chain of PI3 kinase alpha (P27986 whole entry partner): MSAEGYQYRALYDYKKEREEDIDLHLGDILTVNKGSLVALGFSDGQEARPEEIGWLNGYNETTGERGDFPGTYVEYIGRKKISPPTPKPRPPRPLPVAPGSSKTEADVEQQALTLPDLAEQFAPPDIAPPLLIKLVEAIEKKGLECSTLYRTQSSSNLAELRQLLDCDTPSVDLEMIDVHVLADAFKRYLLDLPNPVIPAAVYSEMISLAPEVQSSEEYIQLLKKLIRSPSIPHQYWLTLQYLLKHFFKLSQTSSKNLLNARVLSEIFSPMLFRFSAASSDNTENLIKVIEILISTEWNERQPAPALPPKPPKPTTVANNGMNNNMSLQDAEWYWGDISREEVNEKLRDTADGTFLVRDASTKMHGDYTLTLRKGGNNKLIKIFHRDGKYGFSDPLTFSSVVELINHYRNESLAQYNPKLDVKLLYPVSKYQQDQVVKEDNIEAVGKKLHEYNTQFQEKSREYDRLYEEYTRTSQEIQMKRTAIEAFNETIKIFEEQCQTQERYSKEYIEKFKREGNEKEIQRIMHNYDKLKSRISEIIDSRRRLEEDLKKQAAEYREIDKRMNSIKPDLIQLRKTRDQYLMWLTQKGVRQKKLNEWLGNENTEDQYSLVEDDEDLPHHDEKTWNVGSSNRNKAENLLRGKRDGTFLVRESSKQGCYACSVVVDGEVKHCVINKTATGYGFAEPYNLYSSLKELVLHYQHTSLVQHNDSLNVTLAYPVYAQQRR

| IC50 ([1]; Biological Method 1) [nM] | EC50 [2, 3] [µM] | IC50 [1] [nM] | EC50 ([2]; ovarian cancer cell line A2780) [µM] | SMILES |
| --- | --- | --- | --- | --- |
| < 1000 | < 10 | – | – | CN1CCC(Oc2ccc(-c3cc(-c4cnc(N)nc4)nc(N4CCOCC4)n3)cn2)CC1 [Compound 277] |
| < 1000 | < 25 | – | – | Nc1ncc(-c2nc(N3CCOCC3)ncc2N)cn1 [Compound 258] |
| – | – | < 1000 | < 1 | CC(C)(C)OC(=O)N1CCC[C@H](Oc2cc(-c3cnc(N)cc3C(F)(F)F)nc(N3CCOCC3)n2)C1 [Compound 20] |
| < 1000 | < 10 | – | – | Nc1ccc(-c2cc(Nc3ccc(S(=O)(=O)C(F)(F)F)cc3)nc(N3CCOCC3)n2)cn1 [Compound 358] |
| < 1000 | < 10 | – | – | NC(=O)c1cccc(-c2cc(-c3ccc(N)nc3)nc(N3CCOCC3)n2)c1 [Compound 251] |
| – | – | < 1000 | < 10 | CC(=O)N1CCC[C@@H](Oc2cc(-c3cnc(N)cc3C(F)(F)F)nc(N3CCOCC3)n2)C1 [Compound 453] |
| – | – | < 1000 | < 10 | Nc1ncc(-c2cc(N3CCc4ccccc4C3)nc(N3CCOCC3)n2)cn1 [Compound 403] |
| – | – | < 1000 | < 25 | Nc1ncc(-c2cc(CNC(=O)OC3CCOC3)nc(N3CCOCC3)n2)c(N)n1 (centres unmarked) [Compound 541] |
| – | – | < 1000 | < 10 | CS(=O)(=O)N1CC[C@H](Oc2cc(-c3cnc(N)cc3C(F)(F)F)nc(N3CCOCC3)n2)C1 [Compound 524] |
| < 1000 | < 10 | – | – | Cn1cc(-c2cc(-c3ccc(N)nc3)nc(N3CCOCC3)n2)cn1 [Compound 247] |
| < 1000 | < 10 | – | – | CN1CCN(C(=O)c2cc(-c3cnc(N)nc3)nc(N3CCOCC3)n2)CC1 [Compound 235] |
| < 10000 | < 25 | – | – | Nc1cc(C(F)(F)F)c(-c2cc(N3CCOC(CN4CCCC4)C3)nc(N3CCOCC3)n2)cn1 (centres unmarked) [Compound 220] |
| – | – | < 1000 | < 10 | Cc1c(-c2cnc(N)nc2)nc(N2CCOCC2)nc1-c1cnc(N)nc1 [Compound 484] |
| < 1000 | < 25 | – | – | Nc1cc(C(F)(F)F)c(-c2cc(Nc3ccc(-c4nn[nH]n4)nc3)nc(N3CCOCC3)n2)cn1 [Compound 282] |
| < 1000 | < 10 | – | – | Nc1ncc(-c2cc(-c3cccc4ncccc34)nc(N3CCOCC3)n2)cn1 [Compound 280] |
| < 1000 | < 10 | – | – | CN1CCC(Oc2ccc(Nc3cc(-c4ccc(N)nc4)nc(N4CCOCC4)n3)cn2)CC1 [Compound 276] |
| – | – | < 1000 | < 25 | Nc1cc(C(F)(F)F)c(-c2cc(Nc3ccncc3)nc(N3CCOCC3)n2)cn1 [Compound 447] |
| < 1000 | < 10 | – | – | Nc1cc(C(F)(F)F)c(-c2cc(N3CCCOCC3)nc(N3CCOCC3)n2)cn1 [Compound 221] |
| < 1000 | < 10 | – | – | CS(=O)(=O)Nc1cccc(-c2cc(-c3ccc(N)nc3)nc(N3CCOCC3)n2)c1 [Compound 249] |
| – | – | < 1000 | < 25 | Cc1nc(N)ncc1-c1nc(N2CCOCC2)nc(Cl)c1C [Compound 468] |
| < 1000 | < 10 | – | – | Nc1ccc(-c2cc(Nc3ccc(N4CCNCC4)nc3)nc(N3CCOCC3)n2)cn1 [Compound 299] |
| – | – | < 1000 | < 25 | Cc1c(Cl)nc(N2CCOCC2)nc1-c1cnc(N)nc1 [Compound 483] |
| – | – | < 1000 | < 1 | Nc1cc(C(F)(F)F)c(-c2cc(N3CCCCC3=O)nc(N3CCOCC3)n2)cn1 [Compound 17] |
| – | – | < 1000 | < 10 | CC(C)OC(=O)N1CCC(Oc2cc(-c3cnc(N)cc3C(F)(F)F)nc(N3CCOCC3)n2)CC1 [Compound 460] |
| < 1000 | < 25 | – | – | Nc1cc(C(F)(F)F)c(-c2nc(N3CCOCC3)nc(N3CCOCC3)c2F)cn1 [Compound 313] |

| IC50 ([1]; Biological Method 1) [nM] | EC50 [2, 3] [µM] | IC50 [1] [nM] | EC50 ([2]; ovarian cancer cell line A2780) [µM] | SMILES |
| --- | --- | --- | --- | --- |
| – | – | < 1000 | < 10 | Nc1ncc(-c2cc(O[C@@H]3CCCN(C(=O)OC4CCCC4)C3)nc(N3CCOCC3)n2)c(N)n1 [Compound 526] |
| < 1000 | < 10 | – | – | Nc1ncc(-c2cc(C(=O)N3CCNCC3)nc(N3CCOCC3)n2)cn1 [Compound 233] |
| < 1000 | < 25 | – | – | NC(=O)c1ccccc1-c1cc(-c2ccc(N)nc2)nc(N2CCOCC2)n1 [Compound 254] |
| < 1000 | < 10 | – | – | COc1nc2ccccc2cc1Nc1cc(-c2ccc(N)nc2)nc(N2CCOCC2)n1 [Compound 287] |
| – | – | < 1000 | < 10 | Cc1c(-c2ccc(S(C)(=O)=O)cc2)nc(N2CCOCC2)nc1-c1cnc(N)nc1 [Compound 549] |
| – | – | < 1000 | < 10 | CN1CCC(Nc2ccc(Nc3cc(-c4ccc(N)nc4)nc(N4CCOCC4)n3)cn2)CC1 [Compound 501] |
| < 1000 | < 1 | – | – | CC(=O)c1ccc(Nc2cc(-c3ccc(N)nc3)nc(N3CCOCC3)n2)cc1 [Compound 359] |
| < 1000 | < 10 | – | – | CN1CCN(c2ccc(Nc3cc(-c4ccc(N)nc4)nc(N4CCOCC4)n3)cn2)CC1 [Compound 300] |
| < 1000 | < 25 | – | – | Nc1cc(C(F)(F)F)c(-c2cc(N3CCOC(C(=O)N4CCOCC4)C3)nc(N3CCOCC3)n2)cn1 (centres unmarked) [Compound 325] |
| – | – | < 1000 | < 10 | CC(=O)N1CC[C@H](Oc2cc(-c3cnc(N)cc3C(F)(F)F)nc(N3CCOCC3)n2)C1 [Compound 22] |
| < 1000 | < 10 | – | – | CN1CCN(Cc2cncc(-c3cc(-c4ccc(N)nc4)nc(N4CCOCC4)n3)c2)CC1 [Compound 273] |
| < 1000 | < 10 | – | – | Nc1ncc(-c2cc(C(=O)Nc3ccncc3)nc(N3CCOCC3)n2)cn1 [Compound 230] |
| < 1000 | < 25 | – | – | Nc1cc(C(F)(F)F)c(-c2cc(N3CCOC(C(=O)NC4CCOCC4)C3)nc(N3CCOCC3)n2)cn1 (centres unmarked) [Compound 329] |
| – | – | < 1000 | < 10 | Cc1cnc(N2CCOCC2)nc1-c1cnc(N)nc1 [Compound 482] |
| – | – | < 1000 | < 25 | CC(C)(C)OC(=O)CNc1ccc(Nc2cc(-c3cnc(N)cc3C(F)(F)F)nc(N3CCOCC3)n2)cn1 [Compound 491] |
| – | – | < 1000 | < 25 | N#Cc1cc(N)ncc1-c1cc(-c2cccnc2F)nc(N2CCOCC2)n1 [Compound 417] |
| – | – | < 1000 | < 25 | COc1ccc2cc(Nc3cc(-c4ccc(N)nc4)nc(N4CCOCC4)n3)cnc2c1 [Compound 494] |
| < 1000 | < 10 | – | – | N#Cc1cc(N)ncc1-c1cc(-c2cnc(N)cc2C#N)nc(N2CCOCC2)n1 [Compound 317] |
| < 1000 | < 25 | – | – | Nc1ccc(-c2cc(Nc3cc(F)ccn3)nc(N3CCOCC3)n2)cn1 [Compound 351] |
| < 1000 | < 10 | – | – | Nc1cc(C(F)(F)F)c(-c2cc(Nc3cccc(S(=O)(=O)CCO)c3)nc(N3CCOCC3)n2)cn1 [Compound 318] |
| – | – | < 1000 | < 25 | Nc1ncc(-c2nc(N3CCOCC3)ncc2C(F)(F)F)cn1 [Compound 474] |
| – | – | < 1000 | < 10 | CN(C)c1nc2ccccc2cc1-c1cc(-c2ccc(N)nc2)nc(N2CCOCC2)n1 [Compound 500] |
| < 1000 | < 10 | – | – | N#Cc1ccnc(Nc2cc(-c3cnc(N)cc3C(F)(F)F)nc(N3CCOCC3)n2)c1 [Compound 239] |
| < 1000 | < 10 | – | – | Nc1ncc(-c2cc(Nc3nccc(C(F)(F)F)n3)nc(N3CCOCC3)n2)c(C(F)(F)F)n1 [Compound 216] |

Reference: patent US8217035B2, “Pyrimidine derivatives used as PI-3-kinase inhibitors” (Novartis AG, priority 2006, dated 2012)
